For one experiment, the target named is T1, 5-HT transporter (Rattus norvegicus, UniProt P31652).
T1 construct: synaptosomes of rat brain areas are freshly isolated; from tissue; host or cells: rat brain synaptosomes (P2 fraction) from marrow and pons
The experiment in a line: Inhibition of 5-HT uptake in rat brain synaptosomes. In kind it is biochemical. The note with it: Table III, rat, 1 μM; for inhibition at 1 µM: read-out: Uptake 5-HT, % inhibition.

In the next experiment the test system is NA transporter. Description: Inhibition of noradrenaline uptake in rat brain synaptosomes. To be noted: Table III. In kind it is biochemical.

The structures appear in SMILES notation.

For orientation: inhibition means the relative decrease from the control value, in per cent.

T1 sequence (P31652 whole entry): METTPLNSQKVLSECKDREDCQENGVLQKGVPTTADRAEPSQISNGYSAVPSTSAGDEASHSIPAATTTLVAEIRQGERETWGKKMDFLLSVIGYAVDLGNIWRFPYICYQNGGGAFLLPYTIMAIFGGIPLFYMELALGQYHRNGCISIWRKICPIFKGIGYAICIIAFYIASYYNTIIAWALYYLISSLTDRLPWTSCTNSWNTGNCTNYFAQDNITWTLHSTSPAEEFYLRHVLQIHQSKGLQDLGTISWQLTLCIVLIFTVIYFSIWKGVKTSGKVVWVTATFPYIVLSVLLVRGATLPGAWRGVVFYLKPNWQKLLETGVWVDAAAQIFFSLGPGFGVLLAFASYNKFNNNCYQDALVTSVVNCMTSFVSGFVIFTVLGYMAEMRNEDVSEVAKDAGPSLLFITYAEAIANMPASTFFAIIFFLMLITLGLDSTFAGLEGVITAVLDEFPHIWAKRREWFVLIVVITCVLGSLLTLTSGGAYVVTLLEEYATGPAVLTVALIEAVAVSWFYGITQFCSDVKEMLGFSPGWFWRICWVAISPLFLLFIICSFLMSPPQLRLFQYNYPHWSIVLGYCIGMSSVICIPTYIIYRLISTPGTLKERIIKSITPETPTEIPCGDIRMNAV

For `CCCC(C)C(=O)N1CCC2(CC1)NCC(=O)N2Cc1ccccc1C#N` (stereo not shown) [Example 71, 2-[8-(2-Methylpentanoyl)-2-oxo-1,4,8-triazaspiro[4,5]dec-1-ylmethyl]benzonitrile], the inhibition at 1 µM on 5-HT transporter was 53%. Also, in the experiment on NA transporter, the “Uptake (NA), rat, 10 μM, % inhibition” value was 52%. As to `CCSc1ncccc1C(=O)N1CCC2(CC1)NC(Cc1ccccc1)C(=O)N2C` (stereo not shown) [Example 78, 3-Benzyl-8-(2-ethylsulfanylpyridin-3-carbonyl)-1-methyl-1,4,8-triazaspiro[4,5]decan-2-one], at 5-HT transporter, the inhibition at 1 µM turned out to be 56%. Moreover, the “Uptake (NA), rat, 10 μM, % inhibition” value in the experiment with NA transporter turned out to be 33%.

For the molecule `Cc1cccc(C(=O)N2CCC3(CC2)NCC(=O)N3CCOc2ccccc2)c1` [Example 86, 8-(3-Methylbenzoyl)-1-(2-phenoxyethyl)-1,4,8-triazaspiro[4,5]decan-2-one], the inhibition at 1 µM at 5-HT transporter came out at 50%. Moreover, in the experiment with NA transporter, the “Uptake (NA), rat, 10 μM, % inhibition” value came out at 38%.

In the case of `Cc1nnsc1C(=O)N1CCC2(CC1)NCC(=O)N2Cc1ccccc1` [Example 88, 1-Benzyl-8-(4-methyl[1,2,3]thiadiazole-5-carbonyl)-1,4,8-triazaspiro[4,5]decan-2-one], on 5-HT transporter, the inhibition at 1 µM amounted to 34%. For the same molecule, in the experiment with NA transporter, the “Uptake (NA), rat, 10 μM, % inhibition” value is 32%. The corresponding values for `N#Cc1ccccc1CN1C(=O)CNC12CCN(C(=O)C=Cc1ccccc1Cl)CC2` [Example 89, 2-{8-[3-(2-Chlorophenyl)acryloyl]-2-oxo-1,4,8-triazaspiro[4,5]dec-1-ylmethyl}benzonitrile] are 43% and 41%. The corresponding values for `CC(C)CC1NC2(CCN(C(=O)c3cccc(Cl)c3)CC2)NC1=O` (stereo not shown) [Example 90, 8-(3-Chlorobenzoyl)-3-isobutyl-1,4,8-triazaspiro[4,5]decan-2-one] are 41% and 35%. The matching figures for `COc1cc(OC)cc(C(=O)N2CCC3(CC2)NC(=O)C(CC(C)C)N3)c1` (stereo not shown) [Example 92, 8-(3,5-Dimethoxybenzoyl)-3-isobutyl-1,4,8-triazaspiro[4,5]decan-2-one]: 30% and 30%. With `CCCCN1C(=O)C(CCSC)NC12CCN(C(=O)Cc1ccc(OC)c(OC)c1)CC2` (stereo not shown) [Example 97, 1-Butyl-8-[2-(3,4-dimethoxyphenyl)acetyl]-3-(2-methylsulfanylethyl)-1,4,8-triazaspiro[4,5]decan-2-one], at 5-HT transporter, the inhibition at 1 µM was 67%. Also, the “Uptake (NA), rat, 10 μM, % inhibition” value in the experiment on NA transporter is 30%. The matching figures for `CC(C)C1NC2(CCN(C(=O)c3ccncc3)CC2)N(Cc2ccccc2)C1=O` (stereo not shown) [Example 98, 1-Benzyl-3-isopropyl-8-(pyridin-4-carbonyl)-1,4,8-triazaspiro[4,5]decan-2-one]: 57% and 36%. The corresponding values for `CSCCC1NC2(CCN(C(=O)CC3NC(=O)NC3=O)CC2)N(Cc2ccc(F)cc2)C1=O` (stereo not shown) [Example 100, 5-{2-[1-(4-Fluorobenzyl)-3-(2-methylsulfanylethyl)-2-oxo-1,4,8-triazaspiro[4,5]dec-8-yl]-2-oxoethyl}imidazolidine-2,4-dione] are 42% and 32%. The corresponding values for `CC(C)C1NC2(CCN(C(=O)c3ccco3)CC2)N(Cc2ccccc2C#N)C1=O` (stereo not shown) [Example 103, 2-[8-(Furan-2-carbonyl)-3-isopropyl-2-oxo-1,4,8-triazaspiro[4,5]dec-1-ylmethyl]benzonitrile] are 34% and 30%. For `CSCCC1NC2(CCN(C(=O)c3ccccn3)CC2)N(Cc2ccc(F)cc2)C1=O` (stereo not shown) [Example 109, 1-(4-Fluorobenzyl)-3-(2-methylsulfanylethyl)-8-(pyridin-2-carbonyl)-1,4,8-triazaspiro[4,5]decan-2-one], the inhibition at 1 µM at 5-HT transporter stood at 50%. For the same molecule, the “Uptake (NA), rat, 10 μM, % inhibition” value in the experiment on NA transporter came out at 32%.

With `COCC(=O)N1CCC2(CC1)NC(CCSC)C(=O)N2Cc1cccc(C#N)c1` (stereo not shown) [Example 112, 3-[8-(2-Methoxyacetyl)-3-(2-methylsulfanylethyl)-2-oxo-1,4,8-triazaspiro[4,5]dec-1-ylmethyl]benzonitrile], the inhibition at 1 µM on 5-HT transporter came out at 43%. Moreover, in the experiment on NA transporter, the “Uptake (NA), rat, 10 μM, % inhibition” value is listed as 42%. Take `CC(=O)OC(C(=O)N1CCC2(CC1)NC(Cc1ccccc1)C(=O)N2C)c1ccccc1` (stereo not shown) [Example 113, Ethyl 2-(3-benzyl-1-methyl-2-oxo-1,4,8-triazaspiro[4,5]dec-8-yl)-2-oxo-1-phenylacetate]: on 5-HT transporter, the “Uptake 5-HT, rat, 1 μM, % inhibition” value is listed as 35%. Also, in the experiment on NA transporter, the “Uptake (NA), rat, 10 μM, % inhibition” value was 46%. As for `Cc1onc(-c2c(F)cccc2Cl)c1C(=O)N1CCC2(CC1)NC(=O)C(Cc1ccccc1)N2` (stereo not shown) [Example 115, 3-Benzyl-8-[3-(2-chloro-6-fluorophenyl)-5-methylisoxazole-4-carbonyl]-1,4,8-triazaspiro[4,5]decan-2-one], the inhibition at 1 µM at 5-HT transporter was found to be 30%. For the same molecule, the “Uptake (NA), rat, 10 μM, % inhibition” value with NA transporter came to 34%.

Regarding `CC(C)C1NC2(CCN(C(=O)c3c(F)cccc3Cl)CC2)NC1=O` (stereo not shown) [Example 116, 8-(2-Chloro-6-fluorobenzoyl)-3-isopropyl-1,4,8-triazaspiro[4,5]decan-2-one], the inhibition at 1 µM at 5-HT transporter was determined as 37%. Further, the “Uptake (NA), rat, 10 μM, % inhibition” value in the experiment with NA transporter is 34%. Regarding `CSCCC1NC2(CCN(C(=O)c3cccnc3Oc3ccccc3)CC2)N(C)C1=O` (stereo not shown) [Example 120, 1-Methyl-3-(2-methylsulfanylethyl)-8-(2-phenoxypyridin-3-carbonyl)-1,4,8-triazaspiro[4,5]decan-2-one], the “Uptake (NA), rat, 10 μM, % inhibition” value in the experiment on NA transporter is listed as 32%.

In the case of `CSCCC1NC2(CCN(C(=O)c3cccc(F)c3)CC2)N(C)C1=O` (stereo not shown) [Example 121, 8-(3-Fluorobenzoyl)-1-methyl-3-(2-methylsulfanylethyl)-1,4,8-triazaspiro[4,5]decan-2-one], the inhibition at 1 µM on 5-HT transporter amounted to 41%. In addition, the “Uptake (NA), rat, 10 μM, % inhibition” value in the experiment with NA transporter came out at 37%. The matching figures for `O=C1NC2(CCN(C(=O)c3ccc4ccccc4c3)CC2)NC1Cc1ccccc1` (stereo not shown) [Example 122, 3-Benzyl-8-(naphthalin-2-carbonyl)-1,4,8-triazaspiro[4,5]decan-2-one]: 34% and 38%. Consider `O=C(C1CCCCC1)N1CCC2(CC1)NCC(=O)N2CCOc1ccccc1` [Example 123, 8-Cyclohexanecarbonyl-1-(2-phenoxyethyl)-1,4,8-triazaspiro[4,5]decan-2-one], for which the “Uptake (NA), rat, 10 μM, % inhibition” value in the experiment with NA transporter came out at 36%. With `CCCCN1C(=O)C(CCSC)NC12CCN(C(=O)c1ccc(C#N)cc1)CC2` (stereo not shown) [Example 125, 4-[1-Butyl-3-(2-methylsulfanylethyl)-2-oxo-1,4,8-triazaspiro[4,5]decan-8-carbonyl]benzonitrile], at 5-HT transporter, the inhibition at 1 µM turned out to be 44%. For the same molecule, the “Uptake (NA), rat, 10 μM, % inhibition” value in the experiment with NA transporter stood at 36%. With `CSCCC1NC2(CCN(C(=O)c3ccc4c(c3)OCO4)CC2)N(Cc2cccc(C#N)c2)C1=O` (stereo not shown) [Example 138, 3-[8-(Benzo[1,3]dioxol-5-carbonyl)-3-(2-methylsulfanylethyl)-2-oxo-1,4,8-triazaspiro[4,5]dec-1-ylmethyl]benzonitrile], the “Uptake (NA), rat, 10 μM, % inhibition” value in the experiment on NA transporter turned out to be 30%. Same read-out and setting: then `C=CCCC(=O)N1CCC2(CC1)NC(Cc1ccccc1)C(=O)N2C` (stereo not shown) [Example 139, 3-Benzyl-1-methyl-8-pent-4-enoyl-1,4,8-triazaspiro[4,5]decan-2-one], with 31%. Consider `Cc1ccc(C(=O)N2CCC3(CC2)NC(Cc2ccccc2)C(=O)N3C)cc1F` (stereo not shown) [Example 148, 3-Benzyl-8-(3-fluoro-4-methylbenzoyl)-1-methyl-1,4,8-triazaspiro[4,5]decan-2-one], for which the inhibition at 1 µM at 5-HT transporter was found to be 43%. Further, the “Uptake (NA), rat, 10 μM, % inhibition” value in the experiment with NA transporter is reported as 32%. The matching figures for `C#CCN1C(=O)C(Cc2ccccc2)NC12CCN(C(=O)c1c(F)cccc1Cl)CC2` (stereo not shown) [Example 210, 3-Benzyl-8-(2-chloro-6-fluorobenzoyl)-1-prop-2-ynyl-1,4,8-triazaspiro[4,5]decan-2-one]: 51% and 31%. In the case of `CN1C(=O)C(Cc2ccccc2)NC12CCN(C(=O)c1ccc([N+](=O)[O-])cc1)CC2` (stereo not shown) [Example 238, 3-Benzyl-1-methyl-8-(4-nitrobenzoyl)-1,4,8-triazaspiro[4,5]decan-2-one], the “Uptake (NA), rat, 10 μM, % inhibition” value with NA transporter was 31%. With `COc1cc(C(=O)N2CCC3(CC2)NCC(=O)N3Cc2ccccc2F)cc(OC)c1OC` [Example 271, 1-(2-Fluorobenzyl)-8-(3,4,5-trimethoxybenzoyl)-1,4,8-triazaspiro[4,5]decan-2-one], the inhibition at 1 µM at 5-HT transporter is 44%. The “Uptake (NA), rat, 10 μM, % inhibition” value with NA transporter is 31%. For `COC(=O)c1ccc(CN2C(=O)CNC23CCN(C(=O)c2ccnc(Cl)c2)CC3)cc1` [Example 272, Methyl 4-[8-(2-Chloropyridin-4-earbonyl)-2-oxo-1,4,8-triazaspiro[4,5]dec-1-ylmethyl]benzoate], the “Uptake (NA), rat, 10 μM, % inhibition” value in the experiment on NA transporter came out at 31%. With `N#Cc1cccc(CN2C(=O)CNC23CCN(C(=O)c2cc(C(F)(F)F)cc(C(F)(F)F)c2)CC3)c1` [Example 273, 3-[8-(3,5-Bis-trifluoromethylbenzoyl)-2-oxo-1,4,8-triazaspiro[4,5]dec-1-ylmethyl]benzonitrile], at 5-HT transporter, the inhibition at 1 µM amounted to 51%. Further, the “Uptake (NA), rat, 10 μM, % inhibition” value in the experiment on NA transporter turned out to be 38%. The matching figures for `CCOC(=O)CN1C(=O)C(Cc2ccccc2)NC12CCN(C(=O)c1ccc(S(N)(=O)=O)cc1)CC2` (stereo not shown) [Example 276, Ethyl [3-benzyl-2-oxo-8-(4-sulfamoylbenzoyl)-1,4,8-triazaspiro[4,5]dec-1-yl]acetate]: 95% and 46%. With `CCOC(=O)CN1C(=O)C(CCSC)NC12CCN(C(=O)c1ccccc1C(=O)OCc1ccccc1)CC2` (stereo not shown) [Example 332, Benzyl 2-[1-ethoxycarbonylmethyl-3-(2-methylsulfanylethyl)-2-oxo-1,4,8-triazaspiro[4,5]decan-8-carbonyl]benzoate], in the experiment with NA transporter, the “Uptake (NA), rat, 10 μM, % inhibition” value stood at 36%.

For the origin of these results see patent publication US7951815B2, “Substituted 1,4,8-triazaspiro [4,5]decan-2-one compounds” (Gruenenthal GmbH, priority 2004, dated 2011).
